The supplement of paper PMC10627819

How the values were obtained:
Assay in all cases: fitness (endpoint OD595 vs no drug) (fraction); higher = more growth
B. subtilis 168 = system: B. subtilis 168
Method in brief: (§1)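 Background-subtracted growth curves were the basis for fitness, taken as the optical density at entry into stationary phase over the robust mean of no-drug control wells. A cap of 1 was applied. The curves came from OD595 readings every 30 min for 14 h at 37 °C, in 384-well plates seeded at OD595 0.01 with 30 µl, or 55 µl for S. pneumoniae.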

S. pneumoniae D39V = system: S. pneumoniae D39V
Method in brief: as §1

S. aureus Newman = system: S. aureus Newman
Method in brief: as §1

CN(C)[C@@H]1C(O)=C(C(N)=O)C(=O)[C@@]2(O)C(O)=C3C(=O)c4c(O)ccc(Cl)c4[C@@](C)(O)[C@H]3C[C@@H]12 [Chlortetracycline] + CC1=C(C(=O)O)N2C(=O)[C@@H](NC(=O)[C@H](N)c3ccccc3)[C@H]2SC1 [Cephalexin]
fitness
Settings | first compound 0.0475 µg/mL | first compound 0.095 µg/mL | first compound 0.19 µg/mL | first compound 0.375 µg/mL | first compound 0.75 µg/mL | first compound 1.5 µg/mL
B. subtilis 168, partner 0.125 µg/mL | 0.922 | 0.708 | 0.437 | – | – | –
B. subtilis 168, partner 0.25 µg/mL | 0.918 | 0.818 | 0.534 | – | – | –
B. subtilis 168, partner 0.5 µg/mL | 0.852 | 0.811 | 0.551 | – | – | –
S. pneumoniae D39V, partner 1 µg/mL | – | – | – | 0.0846 | 0.0412 | 0.0388
S. pneumoniae D39V, partner 2 µg/mL | – | – | – | 0.0341 | 0.0584 | 0.0428
S. pneumoniae D39V, partner 4 µg/mL | – | – | – | 0.0429 | 0.0665 | 0.0379

fitness, one replicate
Settings | first compound 0.012 µg/mL | first compound 0.024 µg/mL | first compound 0.0475 µg/mL | first compound 0.048 µg/mL | first compound 0.095 µg/mL | first compound 0.19 µg/mL
B. subtilis 168, partner 1 µg/mL | – | – | 0.936 | – | 0.827 | 0.606
S. pneumoniae D39V, partner 0.125 µg/mL | 0.933 | 0.86 | – | 0.797 | – | –
S. pneumoniae D39V, partner 0.25 µg/mL | 0.872 | 0.809 | – | 0.762 | – | –
S. pneumoniae D39V, partner 0.5 µg/mL | 0.883 | 0.84 | – | 0.706 | – | –

CC1(C)S[C@@H]2[C@H](NC(=O)Cc3ccccc3)C(=O)N2[C@H]1C(=O)O [Penicillin G] + C[n+]1ccc(-c2cc[n+](C)cc2)cc1 [Paraquat]
fitness, S. aureus Newman
Settings | first compound 0.0195 µg/mL | first compound 0.039 µg/mL | first compound 0.078 µg/mL
partner 1.25 µg/mL | 0.827 | 0.832 | 0.876
partner 2.5 µg/mL | 0.863 | 0.871 | 0.827
partner 5 µg/mL | 0.875 | 0.807 | 0.819

CC1(C)S[C@@H]2[C@H](NC(=O)Cc3ccccc3)C(=O)N2[C@H]1C(=O)O [Penicillin G] + CN1C2=CC=CC=C2N=C3C1=CC=CC3=O [Pyocyanin]
fitness, S. aureus Newman
Settings | first compound 0.0195 µg/mL | first compound 0.039 µg/mL | first compound 0.078 µg/mL
partner 1.25 µg/mL | 0.807 | 0.831 | 0.801
partner 2.5 µg/mL | 0.783 | 0.744 | 0.707
partner 5 µg/mL | 0.434 | 0.334 | 0.302

O=C(O)c1cn(C2CC2)c2cc(N3CCNCC3)c(F)cc2c1=O [Ciprofloxacin] + CO/N=C(\C(=O)N[C@@H]1C(=O)N2C(C(=O)[O-])=C(C[N+]3(C)CCCC3)CS[C@H]12)c1csc(N)n1 [Cefepime]
Settings | fitness
S. aureus Newman, first compound 0.0375 µg/mL, partner 0.125 µg/mL | 0.764
S. aureus Newman, first compound 0.0375 µg/mL, partner 0.25 µg/mL | 0.684
S. aureus Newman, first compound 0.0375 µg/mL, partner 0.5 µg/mL | 0.642
S. aureus Newman, first compound 0.075 µg/mL, partner 0.125 µg/mL | 0.686
S. aureus Newman, first compound 0.075 µg/mL, partner 0.25 µg/mL | 0.667
S. aureus Newman, first compound 0.075 µg/mL, partner 0.5 µg/mL | 0.604
S. pneumoniae D39V, first compound 0.125 µg/mL, partner 0.007 µg/mL | 0.991
S. pneumoniae D39V, first compound 0.125 µg/mL, partner 0.0078 µg/mL | ≥ 1
S. pneumoniae D39V, first compound 0.125 µg/mL, partner 0.014 µg/mL | ≥ 1
S. pneumoniae D39V, first compound 0.125 µg/mL, partner 0.0155 µg/mL | 0.935
S. pneumoniae D39V, first compound 0.125 µg/mL, partner 0.028 µg/mL | 0.917
S. pneumoniae D39V, first compound 0.25 µg/mL, partner 0.007 µg/mL | 0.942
S. pneumoniae D39V, first compound 0.25 µg/mL, partner 0.014 µg/mL | 0.972
S. pneumoniae D39V, first compound 0.25 µg/mL, partner 0.028 µg/mL | 0.841
S. pneumoniae D39V, first compound 0.5 µg/mL, partner 0.007 µg/mL | 0.877
S. pneumoniae D39V, first compound 0.5 µg/mL, partner 0.0078 µg/mL | 0.811
S. pneumoniae D39V, first compound 0.5 µg/mL, partner 0.014 µg/mL | 0.903
S. pneumoniae D39V, first compound 0.5 µg/mL, partner 0.0155 µg/mL | 0.734
S. pneumoniae D39V, first compound 0.5 µg/mL, partner 0.028 µg/mL | 0.779
S. pneumoniae D39V, first compound 0.5 µg/mL, partner 0.031 µg/mL | 0.289

S. pneumoniae D39V, first compound 0.25 µg/mL, one replicate
Settings | fitness
partner 0.0078 µg/mL | 0.929
partner 0.0155 µg/mL | 0.959
partner 0.031 µg/mL | 0.741

CO/N=C(\C(=O)N[C@@H]1C(=O)N2C(C(=O)O)=C(COC(N)=O)CS[C@H]12)c1ccco1 [Cefuroxime] + CC1(C)S[C@@H]2[C@H](NC(=O)Cc3ccccc3)C(=O)N2[C@H]1C(=O)O [Penicillin G]
fitness, S. aureus Newman, one replicate
Settings | first compound 0.04875 µg/mL | first compound 0.0975 µg/mL | first compound 0.195 µg/mL
partner 0.0195 µg/mL | 0.873 | 0.849 | 0.889
partner 0.039 µg/mL | 0.959 | 0.831 | 0.907
partner 0.078 µg/mL | 0.898 | 0.888 | 0.906
